From ChEMBL document CHEMBL5608191, “Structure-based discovery of novel piperidine-biphenyl-DAPY derivatives as non-nucleoside reverse transcriptase inhibitors featuring improved potency, safety, and selectivity: From piperazine-biphenyl-DAPYs to piperidine-biphenyl-DAPYs” (Eur J Med Chem, 2024)

Experiments:
[1] = system: Human immunodeficiency virus 1; test: Antiviral activity against HIV-1 harboring RT L100I mutant infected in human MT4 cells assessed as protection against virus-induced cytopathic effect incubated for 5 days by MTT assay; format: functional, organism-based; settings: Human immunodeficiency virus 1, MT4, 120 h
[2] = system: Human immunodeficiency virus 1; test: Antiviral activity against HIV-1 harboring RT Y181C mutant infected in human MT4 cells assessed as protection against virus-induced cytopathic effect incubated for 5 days by MTT assay; format: functional, organism-based; settings: Human immunodeficiency virus 1, MT4, 120 h
[3] = Cytotoxicity against human MT4 cells assessed as reduction in cell viability incubated for 5 days by MTT assay; format: toxicity, cell-based; settings: time 5 day
[4] = system: Human immunodeficiency virus 1; test: Antiviral activity against HIV-1 harboring RT E138K mutant infected in human MT4 cells assessed as protection against virus-induced cytopathic effect incubated for 5 days by MTT assay; format: functional, organism-based; settings: Human immunodeficiency virus 1, MT4, 120 h
[5] = Selectivity index, ratio of CC50 for human MT4 cells to EC50 for wild-type HIV-1 IIIB infected in human MT4 cells; format: toxicity, cell-based; settings: read-out: Ratio CC50/EC50
[6] = system: Human immunodeficiency virus 1; test: Antiviral activity against HIV-1 harboring RT K103N mutant infected in human MT4 cells assessed as protection against virus-induced cytopathic effect incubated for 5 days by MTT assay; format: functional, organism-based; settings: Human immunodeficiency virus 1, MT4, 120 h
[7] = molecular target: Human immunodeficiency virus type 1 reverse transcriptase (Human immunodeficiency virus 1, UniProt Q72547); test: Inhibition of recombinant wild-type HIV-1 reverse transcriptase incubated for 40 mins by fluorescence based assay
[8] = system: Human immunodeficiency virus 1; test: Antiviral activity against HIV-1 harboring RT Y188L mutant infected in human MT4 cells assessed as protection against virus-induced cytopathic effect incubated for 5 days by MTT assay; format: functional, organism-based; settings: Human immunodeficiency virus 1, MT4, 120 h
[9] = system: Human immunodeficiency virus 1; test: Antiviral activity against wild-type HIV-1 IIIB infected in human MT4 cells assessed as protection against virus-induced cytopathic effect incubated for 5 days by MTT assay; format: functional, organism-based; settings: Human immunodeficiency virus 1, IIIB, MT4, 120 h
[10] = Solubility of compound in phosphate buffer at pH 7 by HPLC analysis; format: physicochemical
[11] = Solubility of compound in phosphate buffer at pH 7.4 by HPLC analysis; format: physicochemical
[12] = Solubility of compound in phosphate buffer at pH 2 by HPLC analysis; format: physicochemical
[13] = Solubility of compound in water by HPLC analysis; format: physicochemical

Structure (SMILES)	EC50 [1]	EC50 [2]	CC50 at 120 h [3]	EC50 [4]	selectivity ratio [5]	EC50 [6]	IC50 [7]	EC50 [8]	EC50 [9]	solubility [10]	solubility [11]	solubility [12]	solubility [13]
CCOC(=O)c1cnc(NC2CCN(Cc3ccccn3)CC2)nc1Oc1c(C)cc(-c2ccc(C#N)cc2)cc1C	128 nM	118 nM	> 222000 nM	164 nM	> 12200	43 nM	676 nM	313 nM	18 nM				
CCOC(=O)c1cnc(NC2CCN(Cc3ccc(S(=O)(=O)NC)cc3)CC2)nc1Oc1c(C)cc(-c2ccc(C#N)cc2)cc1C	35 nM	72 nM	10900 nM	38 nM	460	26 nM	744 nM	177 nM	24 nM				
Cc1ccnc2c1NC(=O)c1cccnc1N2C1CC1 [NEVIRAPINE]	2000 nM		> 15000 nM	153 nM				> 10000 nM					
CCOC(=O)c1cnc(NC2CCN(Cc3ccc(OC(F)(F)F)cc3)CC2)nc1Oc1c(C)cc(-c2ccc(C#N)cc2)cc1C			175000 nM		923		2040 nM		189 nM				
CCOC(=O)c1cnc(NC2CCN(Cc3ccc(C(F)(F)F)cc3)CC2)nc1Oc1c(C)cc(-c2ccc(C#N)cc2)cc1C			> 199000 nM		> 472		990 nM		421 nM				
CCOC(=O)c1cnc(NC2CCN(Cc3cccc(C(N)=O)c3)CC2)nc1Oc1c(C)cc(-c2ccc(C#N)cc2)cc1C	66 nM	76 nM	11500 nM	68 nM	757	44 nM	669 nM	342 nM	15 nM				
Cc1cc(C#N)cc(C)c1Oc1nc(Nc2ccc(C#N)cc2)nc(N)c1Br [ETRAVIRINE]			> 4610 nM	13 nM				24 nM		< 1 µg/mL	< 1 µg/mL		
CCOC(=O)c1cnc(NC2CCN(Cc3cccc(C(=O)NC)c3)CC2)nc1Oc1c(C)cc(-c2ccc(C#N)cc2)cc1C	74 nM	67 nM	20400 nM	51 nM	556	48 nM	686 nM	246 nM	37 nM				
CCOC(=O)c1cnc(NC2CCN(Cc3ccc(S(N)(=O)=O)cc3)CC2)nc1Oc1c(C)cc(-c2ccc(C#N)cc2)cc1C	212 nM	202 nM	> 195000 nM	83 nM	> 5640	46 nM	736 nM	538 nM	35 nM				
O=C1Nc2ccc(Cl)cc2[C@@](C#CC2CC2)(C(F)(F)F)O1 [EFAVIRENZ]	39 nM	8 nM	> 6350 nM	8 nM		77 nM							
CCOC(=O)c1cnc(NC2CCN(Cc3ccc(F)cc3)CC2)nc1Oc1c(C)cc(-c2ccc(C#N)cc2)cc1C	257 nM	158 nM	185000 nM	154 nM	4180	115 nM	582 nM	790 nM	44 nM				
CCOC(=O)c1cnc(NC2CCN(Cc3ccc([N+](=O)[O-])cc3)CC2)nc1Oc1c(C)cc(-c2ccc(C#N)cc2)cc1C			164000 nM		4390		410 nM		37 nM				
CCOC(=O)c1cnc(NC2CCN(Cc3ccc(Cl)cc3)CC2)nc1Oc1c(C)cc(-c2ccc(C#N)cc2)cc1C			141000 nM		728		314 nM		194 nM				
CCOC(=O)c1cnc(NC2CCN(Cc3ccc(S(C)(=O)=O)cc3)CC2)nc1Oc1c(C)cc(-c2ccc(C#N)cc2)cc1C	57 nM	51 nM	27900 nM	105 nM	2290	13 nM	598 nM	67 nM	13 nM				
CCOC(=O)c1cnc(NC2CCN(Cc3cccc(C#N)c3)CC2)nc1Oc1c(C)cc(-c2ccc(C#N)cc2)cc1C	342 nM	134 nM	178000 nM	81 nM	4960	65 nM	530 nM	389 nM	36 nM				
CCOC(=O)c1cnc(NC2CCN(Cc3ccc(C#N)cc3)CC2)nc1Oc1c(C)cc(-c2ccc(C#N)cc2)cc1C			131000 nM		604		782 nM		217 nM				
CCOC(=O)c1cnc(NC2CCN(Cc3ccc(C(=O)NC)cc3)CC2)nc1Nc1c(C)cc(-c2ccc(C#N)cc2)cc1C.O=S(=O)(O)O										< 1 µg/mL	< 1 µg/mL	147 µg/mL	134 µg/mL
CCOC(=O)c1cnc(NC2CCN(Cc3ccncc3)CC2)nc1Oc1c(C)cc(-c2ccc(C#N)cc2)cc1C	73 nM	66 nM	60000 nM	73 nM	3720	13 nM	527 nM	87 nM	16 nM				

Structure (SMILES)	EC50 [1]	EC50 [2]	CC50 at 120 h [3]	EC50 [4]	selectivity ratio [5]	EC50 [6]	IC50 [7]	EC50 [8]	EC50 [9]	solubility [10]	solubility [11]	solubility [12]	solubility [13]
CCOC(=O)c1cnc(NC2CCN(Cc3ccc(CO)cc3)CC2)nc1Oc1c(C)cc(-c2ccc(C#N)cc2)cc1C			192000 nM		4740		514 nM		40 nM				
Cc1cn([C@H]2C[C@H](N=[N+]=[N-])[C@@H](CO)O2)c(=O)[nH]c1=O [ZIDOVUDINE]	8 nM	21 nM	> 7490 nM	39 nM	> 223	20 nM		16 nM	34 nM				
CCOC(=O)c1cnc(NC2CCN(Cc3ccccc3C#N)CC2)nc1Oc1c(C)cc(-c2ccc(C#N)cc2)cc1C			196000 nM		3940		327 nM		50 nM				
CCOC(=O)c1cnc(NC2CCN(Cc3cccnc3)CC2)nc1Oc1c(C)cc(-c2ccc(C#N)cc2)cc1C	272 nM	99 nM	> 222000 nM	70 nM	> 6430	53 nM	718 nM	431 nM	35 nM				
Br.CCOC(=O)c1cnc(NC2CCN(Cc3ccc(C(=O)NC)cc3)CC2)nc1Nc1c(C)cc(-c2ccc(C#N)cc2)cc1C										< 1 µg/mL	< 1 µg/mL	141 µg/mL	91.4 µg/mL
CCOC(=O)c1cnc(NC2CCN(Cc3ccc(F)cc3F)CC2)nc1Oc1c(C)cc(-c2ccc(C#N)cc2)cc1C			176000 nM		3280		634 nM		54 nM				
CCOC(=O)c1cnc(NC2CCN(Cc3ccc(OC)cc3)CC2)nc1Oc1c(C)cc(-c2ccc(C#N)cc2)cc1C			125000 nM		3740		622 nM		33 nM				
CCOC(=O)c1cnc(NC2CCN(Cc3ccc(C(=O)NC)cc3)CC2)nc1Oc1c(C)cc(-c2ccc(C#N)cc2)cc1C.Cl										< 1 µg/mL	< 1 µg/mL	103 µg/mL	336 µg/mL
CCOC(=O)c1cnc(NC2CCN(Cc3ccc(C(N)=O)cc3)CC2)nc1Oc1c(C)cc(-c2ccc(C#N)cc2)cc1C	45 nM	48 nM	191000 nM	50 nM	17400	17 nM	596 nM	94 nM	11 nM				
Cc1cc(/C=C/C#N)cc(C)c1Nc1ccnc(Nc2ccc(C#N)cc2)n1 [RILPIVIRINE]							35 nM			< 1 µg/mL	< 1 µg/mL		
CCOC(=O)c1cnc(NC2CCN(Cc3ccc(B(O)O)cc3)CC2)nc1Oc1c(C)cc(-c2ccc(C#N)cc2)cc1C			20900 nM		439		1300 nM		48 nM				
CCOC(=O)c1cnc(N2CCN(Cc3cccc(C(N)=O)c3)CC2)nc1Oc1c(C)cc(-c2ccc(C#N)cc2)cc1C			14800 nM		4				3360 nM				
CCOC(=O)c1cnc(NC2CCN(Cc3ccc(/C=C/C(=O)OC)cc3)CC2)nc1Oc1c(C)cc(-c2ccc(C#N)cc2)cc1C			> 194000 nM		> 2450		535 nM		79 nM				
CCOC(=O)c1cnc(NC2CCN(Cc3ccc(C)cc3)CC2)nc1Oc1c(C)cc(-c2ccc(C#N)cc2)cc1C			178000 nM		5080		890 nM		35 nM				
CCOC(=O)c1cnc(NC2CCN(Cc3ccccc3F)CC2)nc1Oc1c(C)cc(-c2ccc(C#N)cc2)cc1C			189000 nM		4040		769 nM		47 nM				
CCOC(=O)c1cnc(NC2CCN(Cc3ccc(C(=O)NC)cc3)CC2)nc1Nc1c(C)cc(-c2ccc(C#N)cc2)cc1C.O=P(O)(O)O										< 1 µg/mL	< 1 µg/mL	136 µg/mL	77.2 µg/mL
CCOC(=O)c1cnc(NC2CCN(Cc3ccc(F)c(F)c3)CC2)nc1Oc1c(C)cc(-c2ccc(C#N)cc2)cc1C			194000 nM		967		522 nM		201 nM				
